Measurements as given in paper PMC11484942, “Rumicidins are a family of mammalian host-defense peptides plugging the 70S ribosome exit tunnel” (Nature Communications, 2024).

How the values were obtained:
Assay in all cases: Cytokine response, multiplex xMAP
Type in all cases: cell-based, human
Settings in all cases: 2 µM peptide, 24 h
T-/B-/NK-lymphocytes = system: T-/B-/NK-lymphocytes
Method: (§1) The acute monocytic leukemia THP-1 cell line (ATCC TIB-202) was cultured in the complete RPMI 1640 medium (Invitrogen) containing 10% FBS, 1× antibiotic-antimycotic solution (Invitrogen), and 0.05 mM β-mercaptoethanol, in the CO2-incubator (5% CO2, 37 °C). THP-1 cells were differentiated into proinflammatory macrophages (MΦ1) according to the previously reported protocol. Primary peripheral blood mononuclear cells (PBMC) collected from a healthy donor were purchased from ATCC (PCS-800-011), thawed, and seeded into a 96-well plate one day prior to the experiment at a density of 2 × 10^5 cells/well. Two different cell subpopulations (monocytes and T-/B-/NK-lymphocytes) were isolated from PBMC based on their adherence ability. Macrophages MΦ1 were washed out and seeded into 96-well plates at a density of 10^5 cells/well one day prior to the experiment. The next day, medium in each well was replaced by a fresh complete RPMI 1640 medium with or without 2 μM of a tested peptide (rumicidin-1 or LL-37). Cell cultures were kept in a CO2-incubator (5% CO2, 37 °C) for 24 h. Culture supernatants were collected 24 h later and stored at −70 °C degrees less than one week prior to the assessment of analytes. 26 analytes were measured at a protein level by multiplex xMAP technology using the MILLIPLEX MAP Human Cytokine/Chemokine Magnetic Bead Immunology Panel kit (HCYTOMAG-60K-27, Merck): eotaxin-1/CCL11, TGFα, GM-CSF, IFNα2, IFNγ, IL-10, IL-12p40, IL-12p70, IL-15, sCD40L, IL-17A, IL-1RA, IL-1α, IL-9, IL-1β, IL-2, IL-3, IL-4, IL-5, IL-6, IL-7, IL-8/CXCL8, IP-10/CXCL10, RANTES/CCL5, TNFα, TNFβ. Multiplex-based assay read-out was performed using the MAGPIX system (Merck) with the xPONENT 4.2 software (Merck) in accordance with the manufacturer’s instruction with overnight incubation of the samples with primary antibodies. The final analysis was carried out with the MILLIPLEX Analyst v5.1 software (Merck). Measurements were performed twice for each sample. The release of the analytes in control and experimental samples were compared by unpaired two-sample t-test using GraphPad Prism v.8.0.1. The p values ≤ 0.05 were considered significant.

PBMC = system: PBMC
Method: as §1

Caco-2 cells = system: Caco-2 cells

CC[C@H](C)[C@H](NC(=O)[C@H](CCCCN)NC(=O)[C@H](CCC(=O)O)NC(=O)[C@H](CCCCN)NC(=O)[C@H](CO)NC(=O)[C@H](CCCCN)NC(=O)[C@H](CCCNC(=N)N)NC(=O)[C@H](Cc1ccccc1)NC(=O)[C@H](Cc1ccccc1)NC(=O)[C@H](CC(=O)O)NC(=O)CNC(=O)[C@H](CC(C)C)NC(=O)[C@@H](N)CC(C)C)C(=O)NCC(=O)N[C@@H](CCCCN)C(=O)N[C@@H](CCC(=O)O)C(=O)N[C@@H](Cc1ccccc1)C(=O)N[C@@H](CCCCN)C(=O)N[C@@H](CCCNC(=N)N)C(=O)N[C@H](C(=O)N[C@H](C(=O)N[C@@H](CCC(N)=O)C(=O)N[C@@H](CCCNC(=N)N)C(=O)N[C@H](C(=O)N[C@@H](CCCCN)C(=O)N[C@@H](CC(=O)O)C(=O)N[C@@H](Cc1ccccc1)C(=O)N[C@@H](CC(C)C)C(=O)N[C@@H](CCCNC(=N)N)C(=O)N[C@@H](CC(N)=O)C(=O)N[C@@H](CC(C)C)C(=O)N[C@H](C(=O)N1CCC[C@H]1C(=O)N[C@@H](CCCNC(=N)N)C(=O)N[C@H](C(=O)N[C@@H](CCC(=O)O)C(=O)N[C@@H](CO)C(=O)O)[C@@H](C)O)C(C)C)[C@@H](C)CC)C(C)C)[C@@H](C)CC [LL-37]
GM-CSF (T-/B-/NK-lymphocytes): 0,66 pg/ml | IFNa2 (T-/B-/NK-lymphocytes): 7,02 pg/ml | IFNg (T-/B-/NK-lymphocytes): 1,93 pg/ml | IL-1RA (T-/B-/NK-lymphocytes): 6,49 pg/ml | IL-1a (T-/B-/NK-lymphocytes): < 1.13 pg/mL | IL-1b (T-/B-/NK-lymphocytes): < 2.88 pg/mL | IL-2 (T-/B-/NK-lymphocytes): < 2.73 pg/mL | IL-3 (T-/B-/NK-lymphocytes): < 3.02 pg/mL | IL-4 (T-/B-/NK-lymphocytes): 51,58 pg/ml | IL-5 (T-/B-/NK-lymphocytes): < 2.74 pg/mL | IL-6 (T-/B-/NK-lymphocytes): < 2.42 pg/mL | IL-7 (T-/B-/NK-lymphocytes): < 2.06 pg/mL | IL-8 (T-/B-/NK-lymphocytes): 411,17 pg/ml | IL-9 (T-/B-/NK-lymphocytes): < 3.08 pg/mL | IL-10 (T-/B-/NK-lymphocytes): < 1.47 pg/mL | IL-12p40 (T-/B-/NK-lymphocytes): < 3.69 pg/mL | IL-12p70 (T-/B-/NK-lymphocytes): 1,03 pg/ml | IL-15 (T-/B-/NK-lymphocytes): < 2.08 pg/mL | IL-17A (T-/B-/NK-lymphocytes): < 0.94 pg/mL | IP-10 (T-/B-/NK-lymphocytes): 120,56 pg/ml | RANTES (T-/B-/NK-lymphocytes): 889,61 pg/ml | TGF-a (T-/B-/NK-lymphocytes): < 2.64 pg/mL | TNFa (T-/B-/NK-lymphocytes): 5,23 pg/ml | TNFb (T-/B-/NK-lymphocytes): < 2.85 pg/mL | sCD40L (T-/B-/NK-lymphocytes): 3,22 pg/ml | GM-CSF (PBMC): 0,66 pg/ml | IFNa2 (PBMC): 3,72 pg/ml | IFNg (PBMC): < 1.31 pg/mL | IL-1RA (PBMC): 62,83 pg/ml | IL-1a (PBMC): < 1.13 pg/mL | IL-1b (PBMC): < 2.88 pg/mL | IL-2 (PBMC): < 2.73 pg/mL | IL-3 (PBMC): < 3.02 pg/mL | IL-4 (PBMC): 38,61 pg/ml | IL-5 (PBMC): < 2.74 pg/mL | IL-6 (PBMC): < 2.42 pg/mL | IL-7 (PBMC): < 2.06 pg/mL | IL-8 (PBMC): 1591 pg/mL | IL-9 (PBMC): < 3.08 pg/mL | IL-10 (PBMC): < 1.47 pg/mL | IL-12p40 (PBMC): < 3.69 pg/mL | IL-12p70 (PBMC): 0,29 pg/ml | IL-15 (PBMC): < 2.08 pg/mL | IL-17A (PBMC): < 0.94 pg/mL | IP-10 (PBMC): 2236 pg/mL | RANTES (PBMC): 262,49 pg/ml | TGF-a (PBMC): < 2.64 pg/mL | TNFa (PBMC): 15,91 pg/ml | TNFb (PBMC): < 2.85 pg/mL | sCD40L (PBMC): 2,84 pg/ml | Eotaxin (PBMC; supernatant): 3,21 pg/ml | Eotaxin (Caco-2 cells): < 2.04 pg/mL | GM-CSF (Caco-2 cells): 0,45 pg/ml | IFNa2 (Caco-2 cells): 3,72 pg/ml | IFNg (Caco-2 cells): < 1.31 pg/mL | IL-1RA (Caco-2 cells): < 2.66 pg/mL | IL-1a (Caco-2 cells): < 1.13 pg/mL | IL-1b (Caco-2 cells): < 2.88 pg/mL | IL-2 (Caco-2 cells): < 2.73 pg/mL | IL-3 (Caco-2 cells): < 3.02 pg/mL | IL-4 (Caco-2 cells): 43,73 pg/ml | IL-5 (Caco-2 cells): < 2.74 pg/mL | IL-6 (Caco-2 cells): < 2.42 pg/mL | IL-7 (Caco-2 cells): < 2.06 pg/mL | IL-8 (Caco-2 cells): 3,19 pg/ml | IL-9 (Caco-2 cells): < 3.08 pg/mL | IL-10 (Caco-2 cells): < 1.47 pg/mL | IL-12p40 (Caco-2 cells): < 3.69 pg/mL | IL-12p70 (Caco-2 cells): 0,29 pg/ml | IL-15 (Caco-2 cells): < 2.08 pg/mL | IL-17A (Caco-2 cells): < 0.94 pg/mL | IP-10 (Caco-2 cells): 114,78 pg/ml | RANTES (Caco-2 cells): 1050 pg/mL | TGF-a (Caco-2 cells): < 2.64 pg/mL | TNFa (Caco-2 cells): < 2.85 pg/mL | TNFb (Caco-2 cells): < 2.85 pg/mL | sCD40L (Caco-2 cells): 2,12 pg/ml
